# Active and inactive are the calls of the source. How the calls were made is not given here.
# Tested on: CCRIS mutagenicity, Ames/micronucleus/aberration tests
# Assay: CCRIS mutagenicity studies
# [1] = Test System: AMES SALMONELLA TYPHIMURIUM, Strain/Indicator: TA98, Metabolic Activation: NONE, Method: STANDARD PLATE
# [2] = Test System: AMES SALMONELLA TYPHIMURIUM, Strain/Indicator: TA98, Metabolic Activation: RAT, LIVER, S-9, AROCLOR 1254, Method: STANDARD PLATE
# [3] = Test System: AMES SALMONELLA TYPHIMURIUM, Strain/Indicator: TA100, Metabolic Activation: NONE, Method: STANDARD PLATE
# [4] = Test System: AMES SALMONELLA TYPHIMURIUM, Strain/Indicator: TA100, Metabolic Activation: RAT, LIVER, S-9, AROCLOR 1254, Method: STANDARD PLATE
# [5] = Test System: AMES SALMONELLA TYPHIMURIUM, Strain/Indicator: TA102, Metabolic Activation: NONE, Method: STANDARD PLATE
# [6] = Test System: AMES SALMONELLA TYPHIMURIUM, Strain/Indicator: TA102, Metabolic Activation: RAT, LIVER, S-9, AROCLOR 1254, Method: STANDARD PLATE
# [7] = Test System: AMES SALMONELLA TYPHIMURIUM, Strain/Indicator: TA1535, Metabolic Activation: NONE, Method: STANDARD PLATE
# [8] = Test System: AMES SALMONELLA TYPHIMURIUM, Strain/Indicator: TA1535, Metabolic Activation: RAT, LIVER, S-9, AROCLOR 1254, Method: STANDARD PLATE
# [9] = Test System: AMES SALMONELLA TYPHIMURIUM, Strain/Indicator: TA1537, Metabolic Activation: NONE, Method: STANDARD PLATE
# [10] = Test System: AMES SALMONELLA TYPHIMURIUM, Strain/Indicator: TA1537, Metabolic Activation: RAT, LIVER, S-9, AROCLOR 1254, Method: STANDARD PLATE
# [11] = Test System: AMES SALMONELLA TYPHIMURIUM, Strain/Indicator: TA98, Metabolic Activation: NONE, Method: PREINCUBATION
# [12] = Test System: AMES SALMONELLA TYPHIMURIUM, Strain/Indicator: TA100, Metabolic Activation: NONE, Method: PREINCUBATION
structure (smiles),measurement,setting,value
CCCCOCC(=O)O,mutagenic call,"Test System: AMES SALMONELLA TYPHIMURIUM, Strain/Indicator: TA97A, Metabolic Activation: NONE, Method: STANDARD PLATE",inactive; negative
same,mutagenic call,"Test System: AMES SALMONELLA TYPHIMURIUM, Strain/Indicator: TA97A, Metabolic Activation: RAT, LIVER, S-9, AROCLOR 1254, Method: STANDARD PLATE",inactive; negative
same,mutagenic call,[1],inactive; negative
same,mutagenic call,[2],inactive; negative
same,mutagenic call,[3],inactive; negative
same,mutagenic call,[4],inactive; negative
same,mutagenic call,[5],inactive; negative
same,mutagenic call,[6],inactive; negative
C[C@H](CCC(=O)O)[C@H]1CC[C@H]2[C@@H]3[C@@H](O)C[C@@H]4C[C@H](O)CC[C@]4(C)[C@H]3CC[C@]12C,mutagenic call,"Test System: AMES SALMONELLA TYPHIMURIUM, Strain/Indicator: TA98, Metabolic Activation: NONE, Method: FLUCTUATION TEST",active; positive
same,mutagenic call,"Test System: AMES SALMONELLA TYPHIMURIUM, Strain/Indicator: TA100, Metabolic Activation: NONE, Method: FLUCTUATION TEST",inactive; negative
same,mutagenic call,[3],inactive; negative
same,mutagenic call,[4],inactive; negative
O=[N+]([O-])O[C@H]1CO[C@H]2[C@@H]1OC[C@H]2O[N+](=O)[O-],mutagenic call,[1],inactive; negative
same,mutagenic call,[2],inactive; negative
same,mutagenic call,[3],inactive; negative
same,mutagenic call,[4],inactive; negative
same,mutagenic call,[7],inactive; negative
same,mutagenic call,[8],inactive; negative
same,mutagenic call,[9],inactive; negative
same,mutagenic call,[10],inactive; negative
c1ccc([C@H]2O[C@H]2c2ccccc2)cc1,mutagenic call,"Test System: UDS RAT HEPATOCYTES, Strain/Indicator: THY INCORP, Metabolic Activation: NONE",inactive; negative
CCc1c2ccccc2cc2c3c(ccc12)[C@H](O)[C@@H](O)[C@H]1O[C@@H]31,mutagenic call,[11],active; positive
same,mutagenic call,[12],active; positive
same,mutagenic call,"Test System: CHINESE HAMSTER V-79, Strain/Indicator: V-79/6-THIOGUANINE, Metabolic Activation: NONE",active; positive
CC(=O)NBr,mutagenic call,"Test System: AMES SALMONELLA TYPHIMURIUM, Strain/Indicator: TA97, Metabolic Activation: HAMSTER, LIVER, S-9, AROCLOR 1254 (10%), Method: PREINCUBATION",inactive; negative
same,mutagenic call,"Test System: AMES SALMONELLA TYPHIMURIUM, Strain/Indicator: TA97, Metabolic Activation: HAMSTER, LIVER, S-9, AROCLOR 1254 (30%), Method: PREINCUBATION",inactive; negative
same,mutagenic call,"Test System: AMES SALMONELLA TYPHIMURIUM, Strain/Indicator: TA97, Metabolic Activation: NONE, Method: PREINCUBATION",inactive; negative
same,mutagenic call,"Test System: AMES SALMONELLA TYPHIMURIUM, Strain/Indicator: TA97, Metabolic Activation: RAT, LIVER, S-9, AROCLOR 1254 (10%), Method: PREINCUBATION",inactive; negative
same,mutagenic call,"Test System: AMES SALMONELLA TYPHIMURIUM, Strain/Indicator: TA97, Metabolic Activation: RAT, LIVER, S-9, AROCLOR 1254 (30%), Method: PREINCUBATION",inactive; negative
same,mutagenic call,"Test System: AMES SALMONELLA TYPHIMURIUM, Strain/Indicator: TA98, Metabolic Activation: HAMSTER, LIVER, S-9, AROCLOR 1254 (10%), Method: PREINCUBATION",inactive; negative
same,mutagenic call,"Test System: AMES SALMONELLA TYPHIMURIUM, Strain/Indicator: TA98, Metabolic Activation: HAMSTER, LIVER, S-9, AROCLOR 1254 (30%), Method: PREINCUBATION",inactive; negative
same,mutagenic call,[11],inactive; negative
same,mutagenic call,"Test System: AMES SALMONELLA TYPHIMURIUM, Strain/Indicator: TA98, Metabolic Activation: RAT, LIVER, S-9, AROCLOR 1254 (10%), Method: PREINCUBATION",inactive; negative
same,mutagenic call,"Test System: AMES SALMONELLA TYPHIMURIUM, Strain/Indicator: TA98, Metabolic Activation: RAT, LIVER, S-9, AROCLOR 1254 (30%), Method: PREINCUBATION",inactive; negative
same,mutagenic call,"Test System: AMES SALMONELLA TYPHIMURIUM, Strain/Indicator: TA100, Metabolic Activation: HAMSTER, LIVER, S-9, AROCLOR 1254 (10%), Method: PREINCUBATION",inactive; negative
same,mutagenic call,"Test System: AMES SALMONELLA TYPHIMURIUM, Strain/Indicator: TA100, Metabolic Activation: HAMSTER, LIVER, S-9, AROCLOR 1254 (30%), Method: PREINCUBATION",inactive; negative
same,mutagenic call,[12],inactive; negative
same,mutagenic call,"Test System: AMES SALMONELLA TYPHIMURIUM, Strain/Indicator: TA100, Metabolic Activation: RAT, LIVER, S-9, AROCLOR 1254 (10%), Method: PREINCUBATION",inactive; negative
same,mutagenic call,"Test System: AMES SALMONELLA TYPHIMURIUM, Strain/Indicator: TA100, Metabolic Activation: RAT, LIVER, S-9, AROCLOR 1254 (30%), Method: PREINCUBATION",inactive; negative
same,mutagenic call,"Test System: AMES SALMONELLA TYPHIMURIUM, Strain/Indicator: TA1535, Metabolic Activation: HAMSTER, LIVER, S-9, AROCLOR 1254 (10%), Method: PREINCUBATION",inactive; negative
same,mutagenic call,"Test System: AMES SALMONELLA TYPHIMURIUM, Strain/Indicator: TA1535, Metabolic Activation: HAMSTER, LIVER, S-9, AROCLOR 1254 (30%), Method: PREINCUBATION",inactive; negative
same,mutagenic call,"Test System: AMES SALMONELLA TYPHIMURIUM, Strain/Indicator: TA1535, Metabolic Activation: NONE, Method: PREINCUBATION",inactive; negative
same,mutagenic call,"Test System: AMES SALMONELLA TYPHIMURIUM, Strain/Indicator: TA1535, Metabolic Activation: RAT, LIVER, S-9, AROCLOR 1254 (10%), Method: PREINCUBATION",inactive; negative
same,mutagenic call,"Test System: AMES SALMONELLA TYPHIMURIUM, Strain/Indicator: TA1535, Metabolic Activation: RAT, LIVER, S-9, AROCLOR 1254 (30%), Method: PREINCUBATION",inactive; negative
Cc1cccc(N=O)c1,mutagenic call,"Test System: AMES SALMONELLA TYPHIMURIUM, Strain/Indicator: TA98, Metabolic Activation: RAT, LIVER, S-9, AROCLOR 1254, Method: PREINCUBATION",inactive; negative
Cc1ccc(N=CN(C)C=Nc2ccc(C)cc2C)c(C)c1,mutagenic call,"Test System: AMES SALMONELLA TYPHIMURIUM, Strain/Indicator: TA97, Metabolic Activation: NONE, Method: STANDARD PLATE",inactive; negative
same,mutagenic call,"Test System: AMES SALMONELLA TYPHIMURIUM, Strain/Indicator: TA97, Metabolic Activation: RAT, LIVER, S-9, AROCLOR 1254, Method: STANDARD PLATE",inactive; negative
same,mutagenic call,[1],inactive; negative
same,mutagenic call,[2],inactive; negative
same,mutagenic call,[3],inactive; negative
same,mutagenic call,[4],inactive; negative
same,mutagenic call,[5],inactive; negative
same,mutagenic call,[6],inactive; negative
O=S(=O)(NO)c1cccc2cccnc12,mutagenic call,[1],inactive; negative
same,mutagenic call,[2],inactive; negative
same,mutagenic call,[3],inactive; negative
same,mutagenic call,[4],inactive; negative
same,mutagenic call,[7],inactive; negative
same,mutagenic call,[8],inactive; negative
same,mutagenic call,[9],inactive; negative
same,mutagenic call,[10],inactive; negative
COc1cc(O)c2c(=O)c3cc(OC)ccc3oc2c1,mutagenic call,"Test System: AMES SALMONELLA TYPHIMURIUM, Strain/Indicator: TA97, Metabolic Activation: RAT, LIVER, S-9, PHENOBARBITAL AND 5,6-BENZOFLAVONE, Method: PREINCUBATION",active; positive
same,mutagenic call,"Test System: AMES SALMONELLA TYPHIMURIUM, Strain/Indicator: TA98, Metabolic Activation: RAT, LIVER, S-9, PHENOBARBITAL AND 5,6-BENZOFLAVONE, Method: PREINCUBATION",inactive; negative
same,mutagenic call,"Test System: AMES SALMONELLA TYPHIMURIUM, Strain/Indicator: TA100, Metabolic Activation: RAT, LIVER, S-9, PHENOBARBITAL AND 5,6-BENZOFLAVONE, Method: PREINCUBATION",active; positive
same,mutagenic call,"Test System: AMES SALMONELLA TYPHIMURIUM, Strain/Indicator: TA2637, Metabolic Activation: RAT, LIVER, S-9, PHENOBARBITAL AND 5,6-BENZOFLAVONE, Method: PREINCUBATION",active; positive

# From PubChem BioAssay AID1259407 (Chemical Carcinogenesis Research Information System (CCRIS), 2018)
